Experimental data reported in ChEMBL document CHEMBL1143362, “Development of dual-acting prodrugs for circumventing multidrug resistance” (Bioorg Med Chem Lett, 2009).
The source made the active and inactive calls. The rule behind the calls is not given here.

Assays:
MT3 [1] = experiment: Potentiation of doxorubicin-induced cytotoxicity in adriablastin-resistant human MT3 cells expressing p-glycoprotein xenografted in NMRI nude mouse at 5 mg/kg, ip administered on day 12, 13, 19, 20 prior to doxorubicin challenge of 6 mg/kg, iv on day 13 and 20; assay type: functional, organism-based
Mus musculus [2] = experiment: Toxicity in NMRI nude mouse xenografted with adriablastin-resistant human MT3 cells expressing p-glycoprotein assessed as body weight loss at 5 mg/kg, ip administered on day 12, 13, 19, 20 prior to doxorubicin challenge of 6 mg/kg, iv on day 13 and 20; assay type: organism-based; settings: in vivo
Mus musculus [3] = experiment: Toxicity in nude mouse assessed as body weight change at 100.8 mg/kg, iv measured daily for 13 days; assay type: organism-based; design: dose 100.8 mg/kg, route intravenous; settings: in vivo, 312 h
MT3 [4] = experiment: Antitumor activity against adriablastin-resistant human MT3 cells expressing p-glycoprotein xenografted in NMRI nude mouse at 6 mg/kg, iv administered on day 13 and 20; assay type: functional, organism-based; design: dose 6 mg/kg

For `CCOC/C=C/c1ccc(-c2nc(-c3ccc(N(C)C)cc3)c(-c3ccc(NC(=O)CCN)cc3)[nH]2)cc1`, the Activity (MT3 [1]) was “Active” and the Activity (Mus musculus [2]) was -23%.
In the case of `CCOC/C=C/c1ccc(-c2nc(-c3ccc(N(C)C)cc3)c(-c3ccc(NC(=O)CCNC(=O)OCc4ccc(NC(=O)[C@H](CCCCN)NC(=O)[C@H](Cc5ccccc5)NC(=O)CC[C@H](NC(=O)CCCCCN5C(=O)C=CC5=O)C(=O)N[C@@H](Cc5ccccc5)C(=O)N[C@@H](CCCCN)C(=O)Nc5ccc(COC(=O)N[C@H]6C[C@H](O[C@H]7C[C@@](O)(C(=O)CO)Cc8c(O)c9c(c(O)c87)C(=O)c7c(OC)cccc7C9=O)O[C@@H](C)[C@H]6O)cc5)cc4)cc3)[nH]2)cc1.O=C(O)C(F)(F)F.O=C(O)C(F)(F)F`, the Activity (Mus musculus [3]) is reported as “Non-toxic”.
With `COc1cccc2c1C(=O)c1c(O)c3c(c(O)c1C2=O)C[C@@](O)(C(=O)CO)C[C@@H]3O[C@H]1C[C@H](N)[C@H](O)[C@H](C)O1` the Activity (MT3 [4]) was “inactive”.
